Earlier results on 1 substance are cited in patent publication US20100310475A1, “Biocide Capsules, Preparation Comprising them and Sanitary Pad Comprising the Preparation” (DOLHAY KLINIKA EG[…]., priority 2007, published 2010).

In this series the test system is pathogens. The note with it: water solution.

As to “polyvinyl-pyrrolidone iodine [PVP-iodine]”, the most effective concentration-range is listed as 0.01-1 % by weight.
